Data on 6 compounds can be found in patent US9963445B2, “Chemical compounds” (SYNGENTA PARTICIPATIONS AG, priority 2013, dated 2018).

Type in all cases: in vivo
Test [1] has as its system Alopecurus myosuroides. Kind of test: Pre-emergence herbicidal activity, glasshouse pot test. Conditions: pre-emergence spray, rate 1000 g/ha, evaluated after 13 days, scale 0-5. In short, it runs like this: (§1)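 Seeds sown in standard soil were sprayed one day after sowing, before emergence, with compound formulated in acetone/water (50:50) plus 0.5% Tween 20. Plants were grown at 24/16 °C day/night, 14 h light, 65% humidity, watered twice daily, and damage was scored after 13 days (0 = none, 5 = total).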

Test [2] relates to Setaria faberi. The description is as above. The following applies: pre-emergence spray, rate 1000 g/ha, evaluated after 13 days, scale 0-5. In short, it runs like this: as §1
The subject of test [3] is Amaranthus retroflexus. Described as above. Conditions: pre-emergence spray, rate 1000 g/ha, evaluated after 13 days, scale 0-5. In short, it runs like this: as §1
Test [4] deals with Echinochloa crus-galli. The test is described as above. Conditions: pre-emergence spray, rate 1000 g/ha, evaluated after 13 days, scale 0-5. The procedure, abridged:
as §1

Test [5] concerns Abutilon theophrasti. Described as above. Conditions: pre-emergence spray, rate 1000 g/ha, evaluated after 13 days, scale 0-5. In short, it runs like this:
as §1

The test system of test [6] is zea mays. The test is described as above. Conditions: pre-emergence spray, rate 1000 g/ha, evaluated after 13 days, scale 0-5. In short, it runs like this:
as §1

Test [7] has as its system Alopecurus myosuroides. Kind of test: Post-emergence herbicidal activity, glasshouse pot test. More on the design: key: 0 = no damage to plant, 5 = total damage to plant. The following applies: Application post-emergence, rate 1000 g/ha, evaluated after 13 days. In short, it runs like this:
(§2)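 After 8 days of glasshouse growth at 24/16 °C day/night, potted plants receive a foliar spray of the formulated compound (0.5% Tween 20 in acetone/water). They are then watered twice daily under unchanged conditions, and phytotoxicity is scored 0–5 after 13 days.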

Test [8] has as its system Setaria faberi. The test is described as above. The following applies: Application post-emergence, rate 1000 g/ha, evaluated after 13 days. On the set-up: key: 0 = no damage to plant, 5 = total damage to plant. The procedure, abridged:
as §2

Test [9] concerns Amaranthus retroflexus. The test is described as above. More on the design: key: 0 = no damage to plant, 5 = total damage to plant. Conditions: Application post-emergence, rate 1000 g/ha, evaluated after 13 days. In short, it runs like this: as §2
In test [10] the test system is Echinochloa crus-galli. The test is described as above. Conditions: Application post-emergence, rate 1000 g/ha, evaluated after 13 days. On the set-up: key: 0 = no damage to plant, 5 = total damage to plant. The procedure, abridged: as §2
Test [11] deals with Abutilon theophrasti. Described as above. On the set-up: key: 0 = no damage to plant, 5 = total damage to plant. Conditions: Application post-emergence, rate 1000 g/ha, evaluated after 13 days. The procedure, abridged:
as §2

The subject of test [12] is zea mays. The test is described as above. On the set-up: key: 0 = no damage to plant, 5 = total damage to plant. The following applies: Application post-emergence, rate 1000 g/ha, evaluated after 13 days. In short, it runs like this: as §2

With `COC1=C(C)C(O)N(c2ccc(N)cn2)C1=O` (stereo not drawn) [AI28], the “ALOMY damage score, application pre-emergence” value (“ALOMY damage score” below) with Alopecurus myosuroides [1] came to 1. For the same compound, the “SETFA damage score, application pre-emergence” value (“SETFA damage score” below) in the test on Setaria faberi [2] is given as 1. Moreover, in the test with Amaranthus retroflexus [3], the “AMARE damage score, application pre-emergence” value (“AMARE damage score” below) was determined as 1. For the same compound, in the test on Echinochloa crus-galli [4], the “ECHCG damage score, application pre-emergence” value (“ECHCG damage score” below) is recorded as 0. The “ABUTH damage score, application pre-emergence” value (“ABUTH damage score” below) in the test on Abutilon theophrasti [5] was determined as 2. For the same compound, the “ZEAMX damage score, application pre-emergence” value (“ZEAMX damage score” below) in the test with zea mays [6] was determined as 1. Also, the “ALOMY herbicidal damage score” value in the test on Alopecurus myosuroides [7] was found to be 1. In addition, the “SETFA herbicidal damage score” value in the test with Setaria faberi [8] was 1. In addition, the “AMARE herbicidal damage score” value in the test with Amaranthus retroflexus [9] was 1. Further, the “ECHCG herbicidal damage score” value in the test with Echinochloa crus-galli [10] worked out at 1. For the same compound, the “ABUTH herbicidal damage score” value in the test with Abutilon theophrasti [11] amounted to 1. The “ZEAMX herbicidal damage score” value in the test on zea mays [12] stood at 1.

Turning to `COC1=C(C)C(O)N(c2ccc([N+](=O)[O-])cn2)C1=O` (stereo not drawn) [AI29], in the test with Alopecurus myosuroides [1], the “ALOMY damage score” value was 1. For the same compound, the “SETFA damage score” value in the test on Setaria faberi [2] came out at 1. The “AMARE damage score” value in the test on Amaranthus retroflexus [3] was determined as 2. Moreover, in the test on Echinochloa crus-galli [4], the “ECHCG damage score” value is given as 0. For the same compound, in the test with Abutilon theophrasti [5], the “ABUTH damage score” value was 0. Further, the “ZEAMX damage score” value in the test with zea mays [6] was 0. Also, the “ALOMY herbicidal damage score” value with Alopecurus myosuroides [7] was 0. Moreover, the “SETFA herbicidal damage score” value in the test on Setaria faberi [8] stood at 0. Further, the “AMARE herbicidal damage score” value in the test on Amaranthus retroflexus [9] turned out to be 0. Also, the “ECHCG herbicidal damage score” value in the test with Echinochloa crus-galli [10] is reported as 0. The “ABUTH herbicidal damage score” value in the test with Abutilon theophrasti [11] worked out at 0. In addition, the “ZEAMX herbicidal damage score” value in the test on zea mays [12] turned out to be 1.

In the case of `COC1=C(C)C(O)N(c2cc(C(C)C)c(C(=O)NC(C)(C)C#N)cn2)C1=O` (stereo not drawn) [AI31], in the test on Alopecurus myosuroides [1], the “ALOMY damage score” value came out at 3. The “SETFA damage score” value in the test on Setaria faberi [2] is given as 2. Moreover, the “AMARE damage score” value in the test on Amaranthus retroflexus [3] stood at 5. Also, the “ECHCG damage score” value in the test with Echinochloa crus-galli [4] was 3. Further, the “ABUTH damage score” value in the test with Abutilon theophrasti [5] came to 2. Moreover, the “ZEAMX damage score” value in the test with zea mays [6] came to 2. The “ALOMY herbicidal damage score” value in the test on Alopecurus myosuroides [7] worked out at 4. In addition, the “SETFA herbicidal damage score” value in the test with Setaria faberi [8] came to 5. Further, the “AMARE herbicidal damage score” value with Amaranthus retroflexus [9] came to 5. Besides, the “ECHCG herbicidal damage score” value in the test with Echinochloa crus-galli [10] was determined as 5. In addition, the “ABUTH herbicidal damage score” value in the test on Abutilon theophrasti [11] is given as 5. Moreover, the “ZEAMX herbicidal damage score” value in the test with zea mays [12] amounted to 2.

`COC1=C(C)C(O)N(c2cc(C)c(Br)cn2)C1=O` (stereo not drawn) [AI32]: the “ALOMY damage score” value in the test with Alopecurus myosuroides [1] was 2. In addition, the “SETFA damage score” value in the test on Setaria faberi [2] was determined as 2. The “AMARE damage score” value in the test on Amaranthus retroflexus [3] turned out to be 5. In the test with Echinochloa crus-galli [4], the “ECHCG damage score” value is listed as 4. Besides, in the test with Abutilon theophrasti [5], the “ABUTH damage score” value is listed as 0. Moreover, in the test with zea mays [6], the “ZEAMX damage score” value is listed as 1. Also, the “ALOMY herbicidal damage score” value in the test on Alopecurus myosuroides [7] was found to be 5. For the same compound, the “SETFA herbicidal damage score” value with Setaria faberi [8] worked out at 5. Moreover, the “AMARE herbicidal damage score” value with Amaranthus retroflexus [9] was 5. Further, the “ECHCG herbicidal damage score” value with Echinochloa crus-galli [10] was 5. For the same compound, in the test with Abutilon theophrasti [11], the “ABUTH herbicidal damage score” value is 5. The “ZEAMX herbicidal damage score” value in the test on zea mays [12] amounted to 2.

For the compound `COC1=C(C)C(O)N(c2cc(C)c(C(=O)NC3(C#N)CC3)cn2)C1=O` (stereo not drawn) [AI34], the “ALOMY damage score” value with Alopecurus myosuroides [1] is 3. Besides, in the test on Setaria faberi [2], the “SETFA damage score” value turned out to be 3. In addition, the “AMARE damage score” value in the test with Amaranthus retroflexus [3] is 4. Further, the “ECHCG damage score” value in the test with Echinochloa crus-galli [4] was determined as 4. Moreover, the “ABUTH damage score” value in the test on Abutilon theophrasti [5] is on record as 1. Further, the “ZEAMX damage score” value with zea mays [6] was 0. For the same compound, in the test on Alopecurus myosuroides [7], the “ALOMY herbicidal damage score” value is recorded as 4. The “SETFA herbicidal damage score” value in the test on Setaria faberi [8] came out at 5. In addition, the “AMARE herbicidal damage score” value in the test on Amaranthus retroflexus [9] was determined as 5. The “ECHCG herbicidal damage score” value with Echinochloa crus-galli [10] came out at 4. Besides, the “ABUTH herbicidal damage score” value in the test on Abutilon theophrasti [11] was found to be 5. Also, in the test with zea mays [12], the “ZEAMX herbicidal damage score” value is 3.

With `CCC(C)(C)NC(=O)c1cnc(N2C(=O)C(OC)=C(C)C2O)cc1C` (stereo not drawn) [AI35], the “ALOMY damage score” value in the test with Alopecurus myosuroides [1] was 4. Also, the “SETFA damage score” value in the test on Setaria faberi [2] is given as 5. The “AMARE damage score” value in the test with Amaranthus retroflexus [3] turned out to be 5. In addition, the “ECHCG damage score” value with Echinochloa crus-galli [4] turned out to be 5. Also, in the test with Abutilon theophrasti [5], the “ABUTH damage score” value stood at 5. Moreover, the “ZEAMX damage score” value in the test on zea mays [6] came out at 2. Also, the “ALOMY herbicidal damage score” value in the test on Alopecurus myosuroides [7] came to 5. Also, in the test with Setaria faberi [8], the “SETFA herbicidal damage score” value came out at 5. Also, the “AMARE herbicidal damage score” value with Amaranthus retroflexus [9] worked out at 5. Moreover, the “ECHCG herbicidal damage score” value with Echinochloa crus-galli [10] is 5. Also, the “ABUTH herbicidal damage score” value in the test on Abutilon theophrasti [11] amounted to 5. In the test on zea mays [12], the “ZEAMX herbicidal damage score” value is recorded as 3.
